Our source for the IC50 values is US20260109699A1, “AZOLE DERIVATIVES AS SHP2 INHIBITORS” (IRBM S.P.A., priority 2022, published 2026).

The target in test [1] is T1, SHP-2 enzyme (Met1-Leu525), SHP2wt (Homo sapiens, UniProt Q06124).
T1 construct: synthetized by Origene, Met1-Leu525, cat #TP750155; purchased Origene TP750155
T1 sequence (Q06124 1-525): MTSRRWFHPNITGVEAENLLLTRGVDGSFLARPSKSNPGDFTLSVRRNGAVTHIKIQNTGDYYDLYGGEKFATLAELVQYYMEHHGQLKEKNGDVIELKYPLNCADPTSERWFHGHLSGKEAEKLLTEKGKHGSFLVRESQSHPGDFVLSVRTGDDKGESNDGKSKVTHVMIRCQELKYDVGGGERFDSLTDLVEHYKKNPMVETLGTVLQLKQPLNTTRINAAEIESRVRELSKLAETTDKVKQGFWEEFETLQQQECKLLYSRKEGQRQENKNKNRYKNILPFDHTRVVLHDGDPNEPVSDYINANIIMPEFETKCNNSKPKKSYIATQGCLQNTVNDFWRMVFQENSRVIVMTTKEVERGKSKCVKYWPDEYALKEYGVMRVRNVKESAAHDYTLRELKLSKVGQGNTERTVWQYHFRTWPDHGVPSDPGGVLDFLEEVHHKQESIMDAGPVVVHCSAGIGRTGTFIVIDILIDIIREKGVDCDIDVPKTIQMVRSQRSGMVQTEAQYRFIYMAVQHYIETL
Put plainly: SHP2 inhibition enzymatic assay. The test is classed as biochemical. To be noted: 0.5 nM SHP-2 activated by 500 nM IRS1 peptide, 75 μM DiFMUP substrate. As for the experimental part:
The assay was performed as described in YP Chen et al, Nature (535) 2016. Assay volume of 20 μL/well was assembled in 384 well black polystyrene low-binding microplates (Greiner), using the following buffer: 60 mM HEPES pH 7.2, 75 mM NaCl, 75 mM KCl, 1 mM EDTA pH 8, 0.05% tween-20, 5 mM DTT. The SHP-2 enzyme (synthetized by Origene, Met1-Leu525, cat #TP750155) was used at a final concentration of 0.5 nM. The enzyme was activated by 500 nM IRS1 peptide (sequence: H2N-LN(pY)IDLDLV(dPEG8)LST(pY)ASINFQK-amide; Wang et al., iScience 25,104009, Apr. 15, 2022, https://doi.org/10.1016/j.isci.2022.104009) and incubated with 75 μM DiFMUP (Sigma) as substrate.
Briefly, DMSO serially diluted testing compounds were transferred to the bottom of the assay plate. SHP2 was then added together with the IRS1 peptide 30 min post incubation, the DiFMUP substrate was added to the reaction and incubated 30 min at rt. Finally 5 μL of 160 μM bpV (potassium bisperoxo[1,10-phenanthroline]oxovanadate [V], Sigma) were added to stop and quench the reaction. The fluorescence was detected by a microplate reader (Envision, PerkinElmer) according to the DiFMUP excitation and emission wavelength. The lower the fluorescence the higher the SHP2 inhibition.
The activity of each compound dilution was calculated as percentage of inhibition between vehicle (DMSO, 0% inhibition) and no enzyme (100% inhibition). The percentage inhibition is fitted against the compound dilutions with a four-parameter logistic regression. The inflection point (i.e. the concentration at which half-maximal inhibition is achieved) is the IC50.
Legend: A indicates IC50 less or equal to 0.05 μM; B indicates IC50 greater than 0.05 μM and lower or equal to 0.3 μM.

Test [2] relates to phospho-ERK1/2 (Thr202/Tyr204). Put plainly: Phospho-ERK cellular assay. It is filed as cell-based. To be noted: Homo sapiens; KYSE-520 cells, 2 h at 37° C, TR-FRET; read-out: pERK IC50. As for the experimental part:
ERK phosphorylation was detected using the “Advanced phospho-ERK1/2 (Thr202/Tyr204)” TR-FRET kit (Cisbio, Cat #64AERPEG/H), following the manufacturer reagents and instructions.
Briefly, 20.000/well KYSE-520 cells (DSMZ ACC 371) were plated in 6 μL RPMI-1640 (Invitrogen) growth medium, into 384 white low-volume high base TC microplates (Greiner). After an overnight incubation, cells were treated with DMSO serial diluted compounds and incubated for 2 h at 37° C. After incubation, 2 μL/well of 4×Lysis Buffer (Cisbio 64KL1FDF), were added and incubated with cells for 30 min on gentle shaking. Finally, lysates were added with 2 μL/well of Eu cryptate (donor) and D2 (acceptor) conjugated antibodies (as provided by the Cisbio kit #64AERPEG/H) diluted 1:100 in Detection Buffer (as provided by the Cisbio kit #64AERPEG/H). Plates were then sealed and incubated at rt in the dark. After an overnight incubation, the TR-FRET signal was detected on a suitable reader (Envision, PerkinElmer).
The lower the TR-FRET signal the higher the higher the SHP2 inhibition in cells.
The activity of each compound dilution was calculated as percentage between vehicle DMSO treated cells and no cells, 0% inhibition and 100% inhibition respectively. The percentage activity is fitted against the compound dilutions with a four-parameter logistic regression. The inflection point (i.e. the concentration at which half-maximal inhibition is achieved) is the IC50.
Legend: “+” indicates IC50 equal or higher than 0.5 μM; “++” indicates IC50 less than 0.5 μM and higher or equal to 0.1 μM; “+++” indicates IC50 less than 0.1 μM.

With `N[C@@H]1c2ccnn2CC12CCN(c1cnc(Sc3ccc(Cl)c(Cl)c3)cn1)CC2` [Example 23, (S)-1-(5-((3,4-dichlorophenyl)thio)pyrazin-2-yl)-4′H,6′H-spiro[piperidine-4,5′-pyrrolo[1,2-b]pyrazol]-4′-amine], the IC50 was at most 50 nM in test [1] and 100 to 500 nM in test [2].

In the case of `N[C@@H]1c2ccnn2CC12CCN(c1cnc(Sc3ccccc3)cn1)CC2` [Example 24, (S)-1-(5-(phenylthio)pyrazin-2-yl)-4′H,6′H-spiro[piperidine-4,5′-pyrrolo[1,2-b]pyrazol]-4′-amine], the figures for the IC50 in test [1] and in test [2] were at most 50 nM and under 100 nM, respectively.

In the case of `N[C@@H]1c2ccnn2CC12CCN(c1cnc(Sc3ccncc3)cn1)CC2` [Example 25, (S)-1-(5-(pyridin-4-ylthio)pyrazin-2-yl)-4′H,6′H-spiro[piperidine-4,5′-pyrrolo[1,2-b]pyrazol]-4′-amine], the results for the IC50 in test [1] and in test [2] were at most 50 nM and under 100 nM, respectively.

In the case of `Cc1ccccc1Sc1cnc(N2CCC3(CC2)Cn2nccc2[C@H]3N)cn1` [Example 26, (S)-1-(5-(o-tolylthio)pyrazin-2-yl)-4′H,6′H-spiro[piperidine-4,5′-pyrrolo[1,2-b]pyrazol]-4′-amine], the half-maximal inhibitory concentration (IC50) in test [1] is at most 50 nM; in test [2], under 100 nM.

On to `CC(C)c1ccccc1Sc1cnc(N2CCC3(CC2)Cn2nccc2[C@H]3N)cn1` [Example 27, (S)-1-(5-((2-isopropylphenyl)thio)pyrazin-2-yl)-4′H,6′H-spiro[piperidine-4,5′-pyrrolo[1,2-b]pyrazol]-4′-amine], for which the half-maximal inhibitory concentration (IC50) in test [1] was at most 50 nM; in test [2], under 100 nM.

With `N[C@@H]1c2cccn2CC12CCN(c1cnc(Sc3cccc(Cl)c3Cl)cn1)CC2` [Example 28, (S)-1-(5-((2,3-dichlorophenyl)thio)pyrazin-2-yl)-1′H,3′H-spiro[piperidine-4,2′-pyrrolizin]-1′-amine], the figures for the IC50 in test [1] and in test [2] were at most 50 nM and under 100 nM, respectively.

Turning to `N[C@@H]1c2c(F)ccn2CC12CCN(c1cnc(Sc3cccc(Cl)c3Cl)cn1)CC2` [Example 29, (S)-1-(5-((2,3-dichlorophenyl)thio)pyrazin-2-yl)-7′-fluoro-1′H,3′H-spiro[piperidine-4,2′-pyrrolizin]-1′-amine], the IC50 in test [1] was at most 50 nM; in test [2] it was under 100 nM.

Take `N[C@@H]1c2ccnn2CC12CCN(c1cnc(Sc3cccc(F)c3Cl)cn1)CC2` [Example 30, (S)-1-(5-((2-chloro-3-fluorophenyl)thio)pyrazin-2-yl)-4′H,6′H-spiro[piperidine-4,5′-pyrrolo[1,2-b]pyrazol]-4′-amine]: the figures for the IC50 in test [1] and in test [2] were at most 50 nM and under 100 nM, respectively.

`N[C@@H]1c2ccnn2CC12CCN(c1cnc(-c3cccc(Cl)c3Cl)cn1)CC2` [Example 31, (S)-1-(5-(2,3-dichlorophenyl)pyrazin-2-yl)-4′H,6′H-spiro[piperidine-4,5′-pyrrolo[1,2-b]pyrazol]-4′-amine]: the half-maximal inhibitory concentration (IC50) in test [1] was at most 50 nM; in test [2], over 500 nM.

For the compound `N[C@@H]1c2ccnn2CC12CCN(c1cnc(Sc3ccc(F)cc3F)cn1)CC2` [Example 32, (S)-1-(5-((2,4-difluorophenyl)thio)pyrazin-2-yl)-4′H,6′H-spiro[piperidine-4,5′-pyrrolo[1,2-b]pyrazol]-4′-amine], the 50% inhibitory concentration (IC50) is at most 50 nM in test [1] and under 100 nM in test [2].

For the compound `Cc1c(Cl)cccc1Sc1cnc(N2CCC3(CC2)Cn2nccc2[C@H]3N)cn1` [Example 33, (S)-1-(5-((3-chloro-2-methylphenyl)thio)pyrazin-2-yl)-4′H,6′H-spiro[piperidine-4,5′-pyrrolo[1,2-b]pyrazol]-4′-amine], the 50% inhibitory concentration (IC50) in test [1] is at most 50 nM; in test [2] it was under 100 nM.

Regarding `N[C@@H]1c2ccnn2CC12CCN(c1cnc(Sc3ccc(F)cc3Cl)cn1)CC2` [Example 34, (S)-1-(5-((2-chloro-4-fluorophenyl)thio)pyrazin-2-yl)-4′H,6′H-spiro[piperidine-4,5′-pyrrolo[1,2-b]pyrazol]-4′-amine], the 50% inhibitory concentration (IC50) was at most 50 nM in test [1] and under 100 nM in test [2].

On to `Cc1cccc(Sc2cnc(N3CCC4(CC3)Cn3nccc3[C@H]4N)cn2)c1Cl` [Example 35, (S)-1-(5-((2-chloro-3-methylphenyl)thio)pyrazin-2-yl)-4′H,6′H-spiro[piperidine-4,5′-pyrrolo[1,2-b]pyrazol]-4′-amine], for which the half-inhibitory concentration (IC50) in test [1] was at most 50 nM; in test [2], under 100 nM.

Regarding `COc1cccc2c(Sc3cnc(N4CCC5(CC4)Cn4nccc4[C@H]5N)cn3)ccnc12` [Example 37, (S)-1-(5-((8-methoxyquinolin-4-yl)thio)pyrazin-2-yl)-4′H,6′H-spiro[piperidine-4,5′-pyrrolo[1,2-b]pyrazol]-4′-amine], the figures for the half-maximal inhibitory concentration (IC50) in test [1] and in test [2] were at most 50 nM and under 100 nM, respectively.

For the compound `N[C@@H]1c2ccnn2CC12CCN(c1cnc(Sc3cccc4c3CCO4)cn1)CC2` [Example 38, (S)-1-(5-((2,3-dihydrobenzofuran-4-yl)thio)pyrazin-2-yl)-4′H,6′H-spiro[piperidine-4,5′-pyrrolo[1,2-b]pyrazol]-4′-amine], the half-inhibitory concentration (IC50) in test [1] is at most 50 nM; in test [2], 100 to 500 nM.

As for `Cc1cc(Cl)ccc1Sc1cnc(N2CCC3(CC2)Cn2nccc2[C@H]3N)cn1` [Example 40, (S)-1-(5-((4-chloro-2-methylphenyl)thio)pyrazin-2-yl)-4′H,6′H-spiro[piperidine-4,5′-pyrrolo[1,2-b]pyrazol]-4′-amine], the concentration for half-maximal inhibition (IC50) in test [1] was at most 50 nM; in test [2], 100 to 500 nM.

Consider `N[C@@H]1c2ccnn2CC12CCN(c1cnc(Sc3ccccc3C(F)(F)F)cn1)CC2` [Example 41, (S)-1-(5-((2-(trifluoromethyl)phenyl)thio)pyrazin-2-yl)-4′H,6′H-spiro[piperidine-4,5′-pyrrolo[1,2-b]pyrazol]-4′-amine], for which the concentration for half-maximal inhibition (IC50) is at most 50 nM in test [1] and under 100 nM in test [2].

With `N[C@@H]1c2ccnn2CC12CCN(c1cnc(Sc3ccc4c(c3)CCO4)cn1)CC2` [Example 42, (S)-1-(5-((2,3-dihydrobenzofuran-5-yl)thio)pyrazin-2-yl)-4′H,6′H-spiro[piperidine-4,5′-pyrrolo[1,2-b]pyrazol]-4′-amine], the figures for the concentration for half-maximal inhibition (IC50) in test [1] and in test [2] were at most 50 nM and under 100 nM, respectively.

Turning to `N#Cc1cccc(Sc2cnc(N3CCC4(CC3)Cn3nccc3[C@H]4N)cn2)c1C(F)(F)F` [Example 43, (S)-3-((5-(4′-amino-4′H,6′H-spiro[piperidine-4,5′-pyrrolo[1,2-b]pyrazol]-1-yl)pyrazin-2-yl)thio)-2-(trifluoromethyl)benzonitrile], the figures for the 50% inhibitory concentration (IC50) in test [1] and in test [2] were at most 50 nM and under 100 nM, respectively.

By IC50 is commonly meant the midpoint of a concentration-inhibition curve.
